Laboratory results from PMC9596378, “Discovery and molecular basis of subtype-selective cyclophilin inhibitors” (Nature Chemical Biology, 2022).
Values joined by “and” are separate entries in the source; they are usually repeats but may differ in a detail not shown here. Equal values may be shown once. Read-outs that look alike come from different tables or passages of the source.

Columns and labels:
CypH = biological target: T1, CypH (Homo sapiens, UniProt O43447); assay: Chymotrypsin coupled prolyl-isomerase assay; type: biochemical; conditions: for CypH prolyl-isomerase assay raw dose-response value: Fig. 3b source data, replicates
T1 construct: PPIH (UniProtKB Entry O43447: residues 1–177); His6 with TEV site (2BT vector leader) (N); made in house; host or cells: E. coli BL21(DE3)
T1 sequence (O43447 whole entry, the tested form may be a part): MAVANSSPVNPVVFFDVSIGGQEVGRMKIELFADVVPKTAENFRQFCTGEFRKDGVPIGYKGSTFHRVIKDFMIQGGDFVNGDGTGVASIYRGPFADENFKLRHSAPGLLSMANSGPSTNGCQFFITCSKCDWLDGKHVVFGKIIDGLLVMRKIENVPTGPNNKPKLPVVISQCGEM
Outline: (§1)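 Steps: cyclophilin plus compound 5 min at 2–3 °C; α-chymotrypsin added, 5 min more; Suc-AAPF-AMC substrate in LiCl/trifluoroethanol injected and fluorescence followed 330 s. Finals: 5 nM enzyme, 25 µM chymotrypsin, 5 µM substrate, 0.25% DMSO.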

CypE = biological target: T2, CypE (Homo sapiens, UniProt Q9UNP9); assay: Chymotrypsin coupled prolyl-isomerase assay; type: biochemical; conditions: for CypE prolyl-isomerase assay raw dose-response value: Fig. 3b source data, replicates
T2 construct: PPIE (UniProtKB Entry Q9UNP9: residues 131–301); host or cells: E. coli BL21(DE3)
T2 sequence (Q9UNP9 131-301): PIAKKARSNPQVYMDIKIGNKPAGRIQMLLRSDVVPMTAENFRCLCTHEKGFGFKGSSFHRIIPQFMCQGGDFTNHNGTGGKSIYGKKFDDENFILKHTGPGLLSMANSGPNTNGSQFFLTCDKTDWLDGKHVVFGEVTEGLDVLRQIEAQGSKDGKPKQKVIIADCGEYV
Outline: as §1

NKTR = biological target: T3, NKTR (Homo sapiens, UniProt P30414); assay: Chymotrypsin coupled prolyl-isomerase assay; type: biochemical; conditions: for NKTR prolyl-isomerase assay raw dose-response value: Fig. 3b source data, replicates
T3 construct: NKTR (UniProtKB Entry P30414: residues 7–179); host or cells: E. coli BL21(DE3)
T3 sequence (P30414 7-179): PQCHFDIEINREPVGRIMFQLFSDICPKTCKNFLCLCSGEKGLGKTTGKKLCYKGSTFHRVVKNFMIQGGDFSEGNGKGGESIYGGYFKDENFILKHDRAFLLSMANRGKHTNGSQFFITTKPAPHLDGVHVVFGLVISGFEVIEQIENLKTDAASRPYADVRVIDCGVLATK

CypB = biological target: T4, CypB (Homo sapiens, UniProt P23284); assay: biochemical; conditions: for CypB prolyl-isomerase assay raw dose-response value: Fig. 3b source data, replicates
T4 construct: PPIB (UniProtKB Entry P23284: residues 34–216); His6 with TEV site (2BT vector leader) (N); made in house; host or cells: E. coli BL21(DE3)
T4 sequence (P23284 34-216): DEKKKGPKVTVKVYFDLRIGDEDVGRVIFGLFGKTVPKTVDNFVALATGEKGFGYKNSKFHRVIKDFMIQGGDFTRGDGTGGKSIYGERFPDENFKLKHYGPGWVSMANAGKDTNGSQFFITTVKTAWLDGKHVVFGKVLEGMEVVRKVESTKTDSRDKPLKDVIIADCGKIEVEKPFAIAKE
Outline: as §1

SMILES: NCCOCCNC(=O)[C@@H]1CCNC(=O)/C=C/C(=O)N2CCC[C@](Cc3ccccc3)(C2)C(=O)N[C@@H](Cc2ccc(-c3ccc(CCC(=O)O)cc3)cc2)C(=O)NCc2ccccc2CC(=O)N1 [Compound B23]
- CypH prolyl-isomerase assay raw dose-response value (CypH; Dose 0.0201875 µM): 0.05491 and 0.05835 and 0.05541
- CypH prolyl-isomerase assay raw dose-response value (CypH; Dose 0.0605624 µM): 0.04538 and 0.05559 and 0.06086
- CypH prolyl-isomerase assay raw dose-response value (CypH; Dose 0.181687 µM): 0.05774 and 0.04961 and 0.05822
- CypH prolyl-isomerase assay raw dose-response value (CypH; Dose 0.545062 µM): 0.05324 and 0.05013 and 0.05095
- CypH prolyl-isomerase assay raw dose-response value (CypH; Dose 1.63519 µM): 0.05541 and 0.05439 and 0.06013
- CypH prolyl-isomerase assay raw dose-response value (CypH; Dose 4.90556 µM): 0.05126 and 0.04228 and 0.05669
- CypH prolyl-isomerase assay raw dose-response value (CypH; Dose 14.7167 µM): 0.04371 and 0.04194 and 0.04598
- CypH prolyl-isomerase assay raw dose-response value (CypH; Dose 44.15 µM): 0.03624 and 0.03187 and 0.03195
- IC50 (CypH; prolyl-isomerase inhibition, 5 nM cyclophilin, read-out: IC50 CypH): ~30 µM
- IC50 (CypH; wild-type CypH, read-out: Wild-Type Cyclophilin Prolyl Isomerase Inhibition IC50 Values, CypH): 30 µM
- CypE prolyl-isomerase assay raw dose-response value (CypE; Dose 0.00457247 µM): 0.1029 and 0.09388 and 0.1478
- CypE prolyl-isomerase assay raw dose-response value (CypE; Dose 0.0137174 µM): 0.07275 and 0.07554 and 0.1142
- CypE prolyl-isomerase assay raw dose-response value (CypE; Dose 0.0411523 µM): 0.04814 and 0.04078 and 0.05584
- CypE prolyl-isomerase assay raw dose-response value (CypE; Dose 0.123457 µM): 0.02663 and 0.02961 and 0.04183
- CypE prolyl-isomerase assay raw dose-response value (CypE; Dose 0.37037 µM): 0.01687 and 0.01785 and 0.01578
- CypE prolyl-isomerase assay raw dose-response value (CypE; Dose 1.11111 µM): 0.01294 and 0.01514 and 0.0179
- CypE prolyl-isomerase assay raw dose-response value (CypE; Dose 3.33333 µM): 0.01306 and 0.01252 and 0.01422
- CypE prolyl-isomerase assay raw dose-response value (CypE; Dose 10 µM): 0.01752 and 0.01195 and 0.01258
- IC50 (CypE; wild-type CypE, read-out: Wild-Type Cyclophilin Prolyl Isomerase Inhibition IC50 Values, CypE): 19 nM
- NKTR prolyl-isomerase assay raw dose-response value (NKTR; Dose 0.0201875 µM): 0.03059 and 0.03481 and 0.04051
- NKTR prolyl-isomerase assay raw dose-response value (NKTR; Dose 0.0605624 µM): 0.03143 and 0.03531 and 0.03914
- NKTR prolyl-isomerase assay raw dose-response value (NKTR; Dose 0.181687 µM): 0.02923 and 0.03481 and 0.03355
- NKTR prolyl-isomerase assay raw dose-response value (NKTR; Dose 0.545062 µM): 0.03762 and 0.03481 and 0.03206
- NKTR prolyl-isomerase assay raw dose-response value (NKTR; Dose 1.63519 µM): 0.03593 and 0.02854 and 0.03455
- NKTR prolyl-isomerase assay raw dose-response value (NKTR; Dose 4.90556 µM): 0.0369 and 0.03251 and 0.03563
- NKTR prolyl-isomerase assay raw dose-response value (NKTR; Dose 14.7167 µM): 0.03118 and 0.02949 and 0.02947
- NKTR prolyl-isomerase assay raw dose-response value (NKTR; Dose 44.15 µM): 0.02842 and 0.02625 and 0.02899
- IC50 (NKTR; wild-type NKTR, read-out: Wild-Type Cyclophilin Prolyl Isomerase Inhibition IC50 Values, NKTR): > 100 µM
- IC50 (CypB; CypB (comparator for CypB E121S), read-out: Mutant Cyclophilin Prolyl Isomerase Inhibition IC50 Values, CypB): 22 nM
- CypB prolyl-isomerase assay raw dose-response value (CypB; Dose 0.00457247 µM): 0.0629 and 0.06607 and 0.09046
- CypB prolyl-isomerase assay raw dose-response value (CypB; Dose 0.0137174 µM): 0.04838 and 0.05763 and 0.06969
- CypB prolyl-isomerase assay raw dose-response value (CypB; Dose 0.0411523 µM): 0.04508 and 0.04072 and 0.05012
- CypB prolyl-isomerase assay raw dose-response value (CypB; Dose 0.123457 µM): 0.03305 and 0.03113 and 0.02819
- CypB prolyl-isomerase assay raw dose-response value (CypB; Dose 0.37037 µM): 0.02119 and 0.01977 and 0.01945
- CypB prolyl-isomerase assay raw dose-response value (CypB; Dose 1.11111 µM): 0.01691 and 0.01533 and 0.01651
- CypB prolyl-isomerase assay raw dose-response value (CypB; Dose 3.33333 µM): 0.01532 and 0.01471 and 0.0137
- CypB prolyl-isomerase assay raw dose-response value (CypB; Dose 10 µM): 0.01585 and 0.0132 and 0.01359
- IC50 (CypB; prolyl-isomerase inhibition, 5 nM cyclophilin, read-out: IC50 CypB): 22 ± 4 nM
- IC50 (CypB; prolyl-isomerase inhibition, read-out: IC50 CypB): 22 nM
- IC50 (CypB; wild-type CypB, read-out: Wild-Type Cyclophilin Prolyl Isomerase Inhibition IC50 Values, CypB): 22 nM
